We go through eight molecules from patent publication US20210348124A1, “SEBACEOUS GLAND ORGANOIDS AND USE THEREOF” (TECHNION RESEARCH & DEVELOPMENT FOUNDATION LIMITED, priority 2018, published 2021).

Common to all, as to format: cell-based, mouse
For assay [1], the system named is SG organoids. Briefly: Acne vulgaris model: DHT, BRL, LIN administered to SG organoids (size, ORO, Ki67). Conditions: administration to organoids (single agents for 7 days; combinations). The protocol:
Therefore, as a first step, the potent dihydrotestosterone (DHT) androgen, the PPAR-γ BRL-49653 (BRL) activator and linoleic acid (LIN) known to activate PPAR-B38 were administered to organoids.

In assay [2] the test system is SG organoid. Kind of assay: SG organoid as model organ to test drugs (caspase-3 inhibitors, Tretinoin). The following applies: for attenuation of SG organoid size: 100 uM, after 72 hours. The procedure:
Organoids were generated as described herein and treated with two caspase-3 inhibitors (zDEVD-fmk at 100 uM and […] at 100 uM) to assess their effect on the SG. A known anti-acne drug, Tretinoin (10-100 uM) was also added as a positive control.

For assay [3], the system named is DBL-treated organoids. Briefly: Drug treatment of DBL-treated SG organoids (size, ORO, Ki67, cell size). The following applies: for organoid size: then drug for three days. The source says:
With a system that recapitulates important aspects of acne vulgaris, the extent that currently prescribed medications could affect its development was examined. Retinoids are derivatives of vitamin A, which serve as the first-line treatment for acne. Specifically, all-trans-Retinoic acid (ATRA; Tretinoin), formulated ATRA (Ret-Avit) and 13-cis RA (Isotrtinoin) are used worldwide. […] The differentiation program in the SG is a multi-step process. Cells prior to the onset or during early stage of differentiation express AR, which is known to reside upstream and lead to the expression of F[…]. […] Therefore, it was hypothesized that inhibition of c-Myc could serve as a beneficial treatment of acne vulgaris. For this aim, the 10058-F4 c-Myc inhibitor was administered to DBL-treated organoids and size, proliferation and differentiation were monitored.

In assay [4] the test system is Blimp1−YFP+-derived sebaceous gland organoids. Briefly: SG organoids treated with c-Myc inhibitor: size, cell size/number, proliferation, lipid staining. The protocol: For organoid generation a total of ˜1000 cells were mixed with 50 μl of Matrigel (BD Bioscience) and plated in 24-well plates. After polymerization of Matrigel, 500 μl of HFSC media containing growth factors; 20 ng ml-1 hFGF (Peprotech), 40 ng ml-1 mEGF (Peprotech), 500 ng ml-1 hR-spondin 1, 100 ng ml-1 mNoggin (Peprotech) and B-27 Supplement (50×) (Invitrogen)) was added. Organoid treatment with cMyc inhibitor 10058-F4 (50 Tocris Bioscience) or DMSO (as control) was performed for 4 days and renewed upon media change. Organoids were fixed in 4% PFA for 1 hour for immunofluorescence analysis or harvested for RNA extraction. Antibody staining was visualized using secondary antibodies conjugated to Alexa Fluor-488, Alexa Fluor-546, and Alexa Fluor-633. Analysis was performed on Zeiss LSM 880 confocal microscope. Oil-red-O (ORO) staining was performed by incubating samples in 0.18% ORO for 20 min and washing with PBS. Next, the effect of inhibiting c-Myc activity by administering the specific c-Myc inhibitor, 10058-F4 was monitored. […] Six-day old SG organoids were supplemented with the c-Myc inhibitor for 4 days. […] Since the effect on organoid size could result from either altered cell size or number both scenarios were examined. […] Whether the effect of c-Myc inhibition originates from an effect on cell proliferation and/or differentiation was examined next. Employing IF staining with two proliferative markers, Ki67 and MCM2, indicated a significant decline in Ki67+ (69%) and MCM2+ (72%) proliferative cells (FIG. 4J-L). […] This is in line with the reported role of c-Myc in regulating differentiation in the SG in vivo. […] Next, using Real time (RT)-PCR analysis, the levels of transcripts that are expressed in either SG differentiating or differentiated cells, which play a key role in this process were examined. Inhibition of c-Myc decreased the levels of all examined factors including Androgen Receptor (AR) and fatty acid synthase (FASN) (FIG. 4O).

The subject of assay [5] is DBL-treated organoids. Briefly: RT-PCR of DBL-treated SG organoids after drug treatment. Conditions: then drug. The protocol: (§1) RNA extraction, reverse transcription and real-time PCR: RNA was isolated using Trizol (Sigma) and up to 2 μg of RNA were subjected to cDNA synthesis (Applied Biosystems). Real time PCR was carried out using the PerfeCTa SYBR Green FastMix (Quanta), with the following gene-specific primers: RpLO: […] (SEQ ID NO: 1) and ATCTGCTTGGAGCCCACAT (SEQ ID NO: 2); AR: […] (SEQ ID NO: 3) and […] (SEQ ID NO: 4); PPAR-gamma: […] (SEQ ID NO: 5) and […] (SEQ ID NO: 6); PPAR-beta: TTCCTTCCAGCAGCTGTG (SEQ ID NO: 7) and TCGCACGCGTGGACC (SEQ ID NO: 8); FASN: […] (SEQ ID NO: 9) and […] (SEQ ID NO: 10). Amplicon levels were analyzed in triplicate and quantitated relative to a standard curve comprising cDNA, and values normalized to levels of the housekeeping gene (Rpl0). Reactions were: 3 min at 95° C., then 40 cycles of 10 sec at 95° C. and 30 sec at 60° C. with addition of melt curve step: 10 sec at 95° C., and increments of 0.5° C. every 5 sec between 65° C. and 95° C.
The differentiation program in the SG is a multi-step process. Cells prior to the onset or during early stage of differentiation express AR, which is known to reside upstream and lead to the expression of FASN35.
Retinols, such as 13-cis RA, are known to have severe side-effects and concerns have been raised regarding the teratogenicity of these compounds. This highlights the immediate need for alternative treatments. […] Therefore, it was hypothesized that inhibition of c-Myc could serve as a beneficial treatment of acne vulgaris. For this aim, the 10058-F4 c-Myc inhibitor was administered to DBL-treated organoids and size, proliferation and differentiation were monitored.

Assay [6] deals with Blimp1−YFP+-derived sebaceous gland organoids. Kind of assay: Real-time PCR of sebocyte differentiation markers in c-Myc inhibitor-treated SG organoids. The following applies: RT-PCR, inhibitor for 4 days. The protocol:
Organoid treatment with cMyc inhibitor 10058-F4 (50 Tocris Bioscience) or DMSO (as control) was performed for 4 days and renewed upon media change. Organoids were fixed in 4% PFA for 1 hour for immunofluorescence analysis or harvested for RNA extraction.
as §1
This is in line with the reported role of c-Myc in regulating differentiation in the SG in vivo. […] Next, using Real time (RT)-PCR analysis, the levels of transcripts that are expressed in either SG differentiating or differentiated cells, which play a key role in this process were examined. Inhibition of c-Myc decreased the levels of all examined factors including Androgen Receptor (AR) and fatty acid synthase (FASN) (FIG. 4O).
A general note: In qPCR the cycle at which signal appears reflects the starting amount.

The test system of assay [7] is freshly isolated α6+; ScaI−; Blimp1−YFP+ cells. Kind of assay: Organoid generation from primary cells directly seeded in Matrigel with ROCK inhibitor. The following applies: cultures supplemented with ROCK inhibitor and GFs. An excerpt: It was next examined if these Blimp1+ cell-derived organoids could be generated by isolating primary α6+; ScaI−; Blimp1−YFP+ cells and directly seeding them into Matrigel without a pre-culturing phase. […] Thus, these cultures were supplemented with a ROCK inhibitor (Y27632), which prevents cell-cell interaction-dependent anoikis.

[8] abbreviates: IF staining, inhibitor for 4 days.
The mark [9] stands for this setting: six-day old SG organoids, inhibitor for 4 days.

On to `C[C@]12CCC(=O)C[C@@H]1CC[C@@H]1[C@@H]2CC[C@]2(C)[C@@H](O)CC[C@@H]12` [DHT, dihydrotestosterone], for which the “size of individual SG organoids” value in assay [1] was “significantly increased”.
As for `CC1=C(/C=C/C(C)=C/C=C/C(C)=C/C(=O)O)C(C)(C)CCC1` [Tretinoin, all-trans-Retinoic acid], the “reduction of SG organoid size compared with the caspase-3 inhibitors” value in assay [2] (10-100 uM, positive control) is given as “very similar”. In addition, the “number of ORO+ cells” value in assay [3] (then drug) is given as “heightened number”. In addition, the organoid size entry in assay [3] was “significant decrease”.
For `CC1=C(/C=C/C(C)=C/C=C/C(C)=C\C(=O)O)C(C)(C)CCC1` [13-cis RA, 13-cis-Retinoic acid], in assay [3] (then drug), the “number of ORO+ cells” value is given as “heightened number”. Besides, the organoid size result in assay [3] was “significant decrease”.
Turning to `CCc1ccc(C=C2SC(=S)NC2=O)cc1` [10058-F4, 5-[(4-Ethylphenyl)methylene]-2-thioxo-4-thiazolidinone], in assay [4] (setting [8]), the “decline in Ki67+ proliferative cells” value is 69% and the “decline in MCM2+ proliferative cells” value is on record as 72%. For the same molecule, in assay [4] (inhibitor for 4 days), the “lipid levels (ORO dye staining)” value was “significant decrease”. The “decrease in organoid size” value in assay [4] (six-day old SG organoids, c-Myc inhibitor for 4 days, vs DMSO control) is recorded as about 40%. For the same molecule, in assay [4] (setting [9]), the “decline in cell diameter, cells in the inner compartment” value is listed as about 40%; the “diameter of individual cells in the outer proliferating layer of the organoid” value is given as “modest size decrease”; the “localization of c-Myc” value was “did not affect”; the “number of cells in the outer ring of the organoids” value is recorded as “decreased”. In addition, in assay [5], the “expression levels of lipid synthesis genes” value is reported as “significantly lower”, the “mRNA level of Cyclin D1” value is reported as “significant decrease” and the “mRNA level of c-Myc” value was “significant decrease”. Moreover, in assay [6], the “Androgen Receptor (AR) transcript level” value was “decreased”, the PPAR-β transcript level entry is recorded as “significantly attenuated”, the PPAR-γ transcript level result is “significantly attenuated” and the “fatty acid synthase (FASN) transcript level” value is recorded as “decreased”. Moreover, in assay [3] (then drug), the “decrease in the number of Ki67+ cells” value is on record as “more than 80%”, the “number of ORO+ cells” value is given as “significant decrease” and the “size of individual inner cells” value was “decrease”. Further, the organoid size result in assay [3] was “significant decrease”.
Consider `COC(=O)CC[C@H](NC(=O)[C@H](CC(=O)OC)NC(=O)OCc1ccccc1)C(=O)N[C@H](C(=O)N[C@@H](CC(=O)OC)C(=O)CF)C(C)C` [zDEVD-fmk], for which, in assay [2], the “attenuation of SG organoid size” value is reported as “about 30%”. Moreover, in assay [2] (caspase-3 inhibitor treatment), the “cells positive for Ki67” value is “greatly reduced” and the “cells positive for MCM2” value is “greatly reduced”.
As to `C[C@@H](N)[C@H]1CC[C@H](C(=O)Nc2ccncc2)CC1` [Y27632], the “organoid generation from primary cells seeded into Matrigel without pre-culturing” value in assay [7] is given as “able to give rise to organoids, although at a lower efficiency”.
Consider `CC(=O)OCCN1C(=O)c2c(C)nc3ccc(S(=O)(=O)N4CCOCC4)cc3c2C1=O` [Ivachtin], for which, in assay [2], the “attenuation of SG organoid size” value is reported as “about 30%”.
Turning to `CCCCC/C=C\C/C=C\CCCCCCCC(=O)O` [LIN, linoleic acid], in assay [1], the “size of individual SG organoids” value is “significantly increased”.
